The source of these data is patent publication US20260116921A1, “PEPTIDE INHIBITORS OF INTERLEUKIN-23 RECEPTOR AND THEIR USE TO TREAT INFLAMMATORY DISEASES” (priority 2018, published 2026).

Data set [1] addresses T1, IL-23R (Homo sapiens, UniProt Q5VWK5).
T1 sequence (Q5VWK5 24-629): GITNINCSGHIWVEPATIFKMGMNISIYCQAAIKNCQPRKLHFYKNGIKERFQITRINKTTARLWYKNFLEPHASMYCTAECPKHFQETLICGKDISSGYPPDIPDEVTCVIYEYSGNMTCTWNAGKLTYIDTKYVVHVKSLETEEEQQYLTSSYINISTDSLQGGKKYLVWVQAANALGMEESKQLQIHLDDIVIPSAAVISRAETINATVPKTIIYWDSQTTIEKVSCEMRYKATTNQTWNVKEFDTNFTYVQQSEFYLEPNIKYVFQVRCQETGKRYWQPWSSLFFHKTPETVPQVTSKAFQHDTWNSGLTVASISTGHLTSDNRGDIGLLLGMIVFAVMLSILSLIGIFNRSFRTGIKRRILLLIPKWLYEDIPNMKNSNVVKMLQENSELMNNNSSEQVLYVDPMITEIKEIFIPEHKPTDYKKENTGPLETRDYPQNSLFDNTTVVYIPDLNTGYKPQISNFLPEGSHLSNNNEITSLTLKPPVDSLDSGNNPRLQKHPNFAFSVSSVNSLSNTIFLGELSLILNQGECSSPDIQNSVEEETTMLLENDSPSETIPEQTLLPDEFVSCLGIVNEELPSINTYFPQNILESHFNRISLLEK
In words: DB cells IL23R pSTAT3 cell assay (pStat3 HTRF). Type of data set: cell-based. Particulars: Table E3; DB cells, IL-23 0.5 nM, 30 minutes at 37° C.; read-out: pStat3 HTRF (IC50). In short, it runs like this: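 DB cells (5×10E5/well, RPMI-1640 + 10% FBS) stimulated with 0.5 nM final IL-23 plus serially diluted test peptides for 30 min at 37 °C, 5% CO2. Phospho-STAT3 (Tyr705) in lysates measured by HTRF using a two-plate protocol.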

A short description of data set [2]: in vitro. Type of data set: in vitro ADME. More on the design: half-life: dose or concentration left out as unconfirmed. The note with it: simulated intestinal fluid (SIF) with pancreatin, pH 6.8, 37° C., § matrix is 100 fold dilution of standard SIF concentration, read-out: SIF t½ (converted).
A short description of data set [3]: in vitro. The note with it: human, 20% fecal homogenate (supernatant), anaerobic, pH 6.8.
The nature of data set [4]: in vitro. The note with it: cynomolgus monkey, 20% fecal homogenate (supernatant), anaerobic, pH 6.8.
Procedure: Fecal homogenate (20%) was prepared by adding 4 mL of growth medium (1 liter contains 2 g peptone water powder, 2 g yeast extract, 0.1 g NaCl, 0.04 g KH2PO4, 0.01 g CaCl2·6H2O, 0.01 g MgSO4·7H2O, 2 mL Tween 80, 0.5 g bile salts, 0.5 g L-cysteine HCl, 2 g NaHCO3, and 10 μL Vitamin K, pH adjusted to 6.8, and sterilized by filtration through a 0.22 μm filter) to every gram of feces (pooled freshly collected human or cynomolgus monkey feces). The suspension was vortexed to break up large clumps, and homogenized using a bead mill homogenizer. Centrifuged the homogenate at 2800×g for 15 min. The supernatant is taken out and used for incubations. DMSO stocks (10 mM) were first prepared for the test compounds. Incubations were performed in an anaerobic chamber conditioned at 37° C. Aliquots of the DMSO solutions were dosed into 1.0 mL aliquots of 20% fecal homogenate, which are pre-warmed to 37° C. The final test compound concentration was 20 μM. At each timepoint (0, 20 min, 1, 3, 6, or 24 hours), 100 μL aliquot of each incubation mixture is taken out and added to separate tubes containing 300 μL of 50% acetonitrile/50% methanol and an internal standard to terminate the reaction. Samples were taken out of the anaerobic chamber and stored at 4° C. until the end of the experiment. After the final timepoint is sampled, the tubes were mixed and then centrifuged at 3,000 rpm for 10 minutes. Aliquots of the supernatant were removed, diluted 1:1 into distilled water containing 0.1% formic acid, and analyzed by LC/MS/MS. Percent remaining at each timepoint was calculated based on the peak area response ratio of test to compound to internal standard. Time 0 was set to 100%, and all later timepoints were calculated relative to time 0. Half-lives were calculated by fitting to a first-order exponential decay equation using Graphpad or Excel.
Data set [5] in a line: in vitro. Particulars: both, SD, rat, plasma (EDTA).
Procedure: Peptides of interest (20 μM) were incubated with pre-warmed rat plasma (SD rat, mixed gender pooled, EDTA, filtered through 0.22 μm, BioreclamationIVT) at 37° C. […] Quenched samples were stored at 4° C. until the end of the experiment and centrifuged at 4,000 rpm for 10 minutes. The supernatant were diluted 1:1 with deionized water and analyzed using LC-MS. Percentage remaining at each time point was calculated based on the peak area ratio (analyte over internal standard) relative to the initial level at time zero. Half-lives were calculated by fitting to a first-order exponential decay equation using GraphPad.
Data set [6] addresses T2, IL-23R (human, UniProt Q5VWK5 24-629).
T2 sequence (looked up): T1 sequence (Q5VWK5 24-629)
Kind of data set: cell-based or functional assay.

Numbered stars: 1 amine (or outer) side, 2 acyl side, 3 side chain; on linkers, the order of the positions; unused ones are H or OH. Bridge positions count the residues as written; N and C are the ends. Square brackets hold non-standard residues; d marks the D form. Peptide text beside a SMILES is read from it. X2 = CCCc1cccc2c(C[C@H](N[*:1])C(=O)[*:2])c[nH]c12; X1 = CCc1cccc2c(C[C@H](N[*:1])C(=O)[*:2])c[nH]c12; Trp(7-Me) = Cc1cccc2c(C[C@H](N)C(=O)O)c[nH]c12; Trp(1-Me) = Cn1cc(C[C@H](N)C(=O)O)c2ccccc21; 2Nal = N[C@@H](Cc1ccc2ccccc2c1)C(=O)O; AEF = NCCOc1ccc(C[C@H](N)C(=O)O)cc1; Cit = NC(=O)NCCC[C@H](N)C(=O)O; Pen = CC(C)(S)[C@H](N)C(=O)O; αMeK = C[C@](N)(CCCCN)C(=O)O; βAla = NCCC(=O)O Some results are limits rather than exact numbers.

Consider `CC(=O)NCCCC[C@H](NC(=O)[C@](C)(CCCCN)NC(=O)[C@H](Cc1ccc2ccccc2c1)NC(=O)[C@H](Cc1ccc(OCCN)cc1)NC(=O)[C@H]1NC(=O)[C@H](CCCNC(N)=O)NC(=O)[C@H](Cc2c[nH]c3c(C)cccc23)NC(=O)[C@H]([C@@H](C)O)NC(=O)[C@H](CC(N)=O)NC(=O)[C@@H](NC(C)=O)C(C)(C)SSC1(C)C)C(=O)N[C@@H](CC(N)=O)C(=O)N[C@@H](C(N)=O)[C@H](C)O` [compound 263] (Ac-[Pen]NT[Trp(7-Me)][Cit][Pen][AEF][2Nal][αMeK]K(Ac)N[dT]-NH2; disulfide 1-6), for which, in data set [1], the IC50 is below 1 nM. The half-life in data set [2] was 14 h. In addition, the half-life at 20 μM is above 24 h in data set [3], 9 h in data set [4] and above 24 h in data set [5].

As for `CCCc1cccc2c(C[C@@H]3NC(=O)[C@H]([C@@H](C)O)NC(=O)[C@H](CC(N)=O)NC(=O)[C@@H](NC(C)=O)C(C)(C)SSC(C)(C)[C@@H](C(=O)N[C@@H](Cc4ccc(OCCN)cc4)C(=O)N[C@@H](Cc4ccc5ccccc5c4)C(=O)N[C@@](C)(CCCCN)C(=O)N[C@@H](CCCCNC(C)=O)C(=O)N[C@@H](CC(N)=O)C(=O)N[C@H](CC(C)C)C(N)=O)NC(=O)[C@H](CCCCNC(C)=O)NC3=O)c[nH]c12` [compound 285] (Ac-[Pen]NT[X2]K(Ac)[Pen][AEF][2Nal][αMeK]K(Ac)N[dL]-NH2; disulfide 1-6), in data set [1], the IC50 is below 1 nM. Also, in data set [2], the half-life is 9 h. Further, the half-life at 20 μM in data set [3], in data set [4] and in data set [5] was above 24 h in each case.

`CC(=O)NCCCC[C@H](NC(=O)[C@](C)(CCCCN)NC(=O)[C@H](Cc1ccc2ccccc2c1)NC(=O)[C@H](Cc1ccc(OCCN)cc1)NC(=O)[C@H]1NC(=O)[C@H](CCCNC(N)=O)NC(=O)[C@H](Cc2c[nH]c3c(C)cccc23)NC(=O)[C@H]([C@@H](C)O)NC(=O)[C@H](CC(N)=O)NC(=O)[C@@H](NC(C)=O)C(C)(C)SSC1(C)C)C(=O)NCCC(=O)NCCC(N)=O` [compound 268] (Ac-[Pen]NT[Trp(7-Me)][Cit][Pen][AEF][2Nal][αMeK]K(Ac)[βAla][βAla]-NH2; disulfide 1-6): in data set [1], the IC50 was in the range of 1 to 10 nM. Also, in data set [2], the half-life was 15 h. In addition, the half-life at 20 μM in data set [3], in data set [4] and in data set [5] was above 24 h each time.

Turning to `COc1cccc2c(C[C@@H]3NC(=O)[C@H]([C@@H](C)O)NC(=O)[C@H](CC(N)=O)NC(=O)[C@@H](NC(C)=O)C(C)(C)SSC(C)(C)[C@@H](C(=O)N[C@@H](Cc4ccc(OCCN)cc4)C(=O)N[C@@H](Cc4ccc5ccccc5c4)C(=O)N[C@@](C)(CCCCN)C(=O)N[C@@H](CCCCNC(C)=O)C(=O)N[C@@H](CC(N)=O)C(=O)N[C@H](CC(C)C)C(N)=O)NC(=O)[C@H](CCCCNC(C)=O)NC3=O)c[nH]c12` [compound 288], the IC50 in data set [1] lay in the range of 1 to 10 nM. In data set [2], the half-life is 12 h. The half-life at 20 μM in data set [3], in data set [4] and in data set [5] was above 24 h throughout.

For `CC(=O)NCCCC[C@@H]1NC(=O)[C@H](Cc2c[nH]c3c(C)cccc23)NC(=O)[C@H]([C@@H](C)O)NC(=O)[C@H](CC(N)=O)NC(=O)[C@@H](NC(C)=O)C(C)(C)SSC(C)(C)[C@@H](C(=O)N[C@@H](Cc2ccc(OCCN)cc2)C(=O)N[C@@H](Cc2ccc3ccccc3c2)C(=O)N[C@@](C)(CCCCN)C(=O)N[C@@H](CCCCNC(C)=O)C(=O)N[C@@H](CC(N)=O)C(=O)N[C@@H](CCCNC(N)=O)C(N)=O)NC1=O` [compound 249], the IC50 in data set [1] was below 1 nM. Besides, the half-life in data set [2] is 7 h. Besides, the half-life at 20 μM in data set [3] is above 24 h; in data set [4], 5 h; in data set [5], above 24 h.

With `CC(=O)NCCCC[C@H](NC(=O)[C@](C)(CCCCN)NC(=O)[C@H](Cc1ccc2ccccc2c1)NC(=O)[C@H](Cc1ccc(OCCN)cc1)NC(=O)[C@H]1NC(=O)[C@H](CCCNC(N)=O)NC(=O)[C@H](Cc2cn(C)c3ccccc23)NC(=O)[C@H]([C@@H](C)O)NC(=O)[C@H](CC(N)=O)NC(=O)[C@@H](NC(C)=O)C(C)(C)SSC1(C)C)C(=O)NCCC(=O)NCCC(N)=O` [compound 280] (Ac-[Pen]NT[Trp(1-Me)][Cit][Pen][AEF][2Nal][αMeK]K(Ac)[βAla][βAla]-NH2; disulfide 1-6), the IC50 in data set [1] was 10 to 100 nM. In addition, the half-life in data set [2] is 8 h. The half-life at 20 μM in data set [3], in data set [4] and in data set [5] was above 24 h each time.

On to `CCc1cccc2c(C[C@@H]3NC(=O)[C@H]([C@@H](C)O)NC(=O)[C@H](CC(N)=O)NC(=O)[C@@H](NC(C)=O)C(C)(C)SSC(C)(C)[C@@H](C(=O)N[C@@H](Cc4ccc(OCCN)cc4)C(=O)N[C@@H](Cc4ccc5ccccc5c4)C(=O)N[C@@](C)(CCCCN)C(=O)N[C@@H](CCCCNC(C)=O)C(=O)N[C@@H](CC(N)=O)C(=O)N[C@H](CC(C)C)C(N)=O)NC(=O)[C@H](CCCCNC(C)=O)NC3=O)c[nH]c12` [compound 284] (Ac-[Pen]NT[X1]K(Ac)[Pen][AEF][2Nal][αMeK]K(Ac)N[dL]-NH2; disulfide 1-6), for which the IC50 in data set [1] was below 1 nM. Further, the half-life in data set [2] is 2 h. The half-life at 20 μM in data set [3], in data set [4] and in data set [5] was above 24 h in each case.

With `CC(=O)N[C@@H]1C(=O)N[C@@H](CC(N)=O)C(=O)N[C@@H]([C@@H](C)O)C(=O)N[C@@H](Cc2c[nH]c3c(C)cccc23)C(=O)N[C@@H](CCC(N)=O)C(=O)N[C@H](C(=O)N[C@@H](Cc2ccc(OCCN)cc2)C(=O)N[C@@H](Cc2ccc3ccccc3c2)C(=O)N[C@@](C)(CCCCN)C(=O)N[C@@H](CCCNC(N)=O)C(=O)NCCC(=O)NCCC(N)=O)C(C)(C)SSC1(C)C` [compound 279], the IC50 in data set [1] fell in the range of 1 to 10 nM. In addition, in data set [2], the half-life is 7 h. Also, the half-life at 20 μM in data set [3], in data set [4] and in data set [5] was above 24 h each time.

Turning to `CC(=O)NCCCC[C@@H]1NC(=O)[C@H](Cc2c[nH]c3c(C)cccc23)NC(=O)[C@H]([C@@H](C)O)NC(=O)[C@H](CC(N)=O)NC(=O)[C@@H](NC(C)=O)C(C)(C)SSC(C)(C)[C@@H](C(=O)N[C@@H](Cc2ccc3ccccc3c2)C(=O)N[C@@H](Cc2ccc3ccccc3c2)C(=O)N[C@@](C)(CCCCN)C(=O)N[C@@H](CCCCNC(C)=O)C(=O)N[C@@H](CC(N)=O)C(=O)N[C@H](CC(C)C)C(N)=O)NC1=O` [compound 289] (Ac-[Pen]NT[Trp(7-Me)]K(Ac)[Pen][2Nal][2Nal][αMeK]K(Ac)N[dL]-NH2; disulfide 1-6), the IC50 in data set [1] was in the range of 1 to 10 nM. In data set [2], the half-life is 12 h. For the same molecule, the half-life at 20 μM in data set [3], in data set [4] and in data set [5] was above 24 h each time.

For the molecule Ac-[Pen]NT[Trp(2,5,7-tritBu)]Q[Pen][AEF][2Nal][αMeK]K(Ac)N[βAla]-NH2 (disulfide 1-6) [SEQ ID NO: 233], in data set [6], the “pStat3 HTRF (nM) IC50” value is above 100 nM.

As to Ac-[Pen]NT[Trp(7-Me)][Cit][Pen][AEF][2Nal][αMeK]K(Ac)N[dR]-NH2 (disulfide 1-6 (inferred)) [SEQ ID NO: 256], the “pStat3 HTRF (nM) IC50” value in data set [6] is below 1 nM.

B1: SEQ ID NO: 249 (peptide)
peptide: XNTXKXXXXKNX
modifications: Ac-[Pen]-NT-[W(7-Me)]-[Lys(Ac)]-[Pen]-Phe[4-(2-aminoethoxy)]-[2-Nal]-[a-MeLys]-[Lys(Ac)]-N-[Cit]-NH2; Pen-Pen disulfide
As for B1, the “pStat3 HTRF (nM) IC50” value in data set [6] is below 1 nM.
